In patent US8513274B2, “Ellipticine compounds for treating obesity” (Etzem, Inc., priority 2009, dated 2013):
Where a name gives a salt, the structure may show the parent alone.

Assay: Reduction of body weight with ellipticine hydrochloride in mice
Format: in vivo
Conditions: initial body weight 30 g, every weekday
Protocol: In order to determine the effect of ellipticine and ellipticine derivatives in reducing body weight, ellipticine hydrochloride was administered to mice every weekday for 4 weeks (30 days) and their body weights tracked. Ellipticine hydrochloride was solubilized in saline and administered via intraperitoneal injection. Animals were weighed weekly.
Mice (6 per group) were divided into seven groups and given one of the following treatments: • 1. 10 mg ellipticine hydrochloride/kg body weight (Low) • 2. 20 mg ellipticine hydrochloride/kg body weight (Mid) • 3. 30 mg ellipticine hydrochloride/kg body weight (High) • 4. Saline • 5. 3 mg/kg body weight (Positive control 2) • 6. 5 mg/kg body weight (Positive control low) • 7. 10 mg/kg body weight (Positive control high)

Cc1c2ccncc2c(C)c2c1[nH]c1ccccc12 [ellipticine hydrochloride]
body weight loss (decrease of body weight) (10 mg/kg (Low) intraperitoneal in saline, end of 4 weeks): more than 18%
body weight loss (20 mg/kg (Mid) intraperitoneal in saline, end of week 3, animals then sacrificed): more than 33%
reduction in body weight (30 mg/kg (High) intraperitoneal in saline, end of week 2, animals then sacrificed): 28%
